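96-well plates; 48 h exposure; 5 concentrations. Endpoints by linear interpolation between flanking doses. Not reached: highest tested concentration assigned. Here, GI50 denotes the concentration required for 50% inhibition of growth.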 Activity calls are given as the source filed them. Rule as the data show it: active = GI50 up to about 1.1 µM and inactive = higher.
Legend:
Test in all cases: inhibition of tumour cell growth, NCI panel, 48 h
SF-268 = test system: SF-268
LOX IMVI = test system: LOX IMVI
OVCAR-8 = test system: OVCAR-8
IGROV-1 = test system: IGROV-1
SF-539 = test system: SF-539
A498 = test system: A498
HCT-116 = test system: HCT-116
HT-29 = test system: HT-29
SK-MEL-28 = test system: SK-MEL-28
NCI-H226 = test system: NCI-H226
SNB-19 = test system: SNB-19
RPMI-8226 = test system: RPMI-8226
HOP-62 = test system: HOP-62
TK-10 = test system: TK-10
DU-145 = test system: DU-145
Hs-578T = test system: Hs-578T
MDA-MB-435 = test system: MDA-MB-435
SK-MEL-2 = test system: SK-MEL-2
MCF7 = test system: MCF7

SMILES	GI50 (SF-268)	GI50 (LOX IMVI)	GI50 (OVCAR-8)	GI50 (IGROV-1)	GI50 (SF-539)	GI50 (A498)	GI50 (HCT-116)	GI50 (HT-29)	GI50 (SK-MEL-28)	GI50 (NCI-H226)	GI50 (SNB-19)	GI50 (RPMI-8226)	GI50 (HOP-62)	GI50 (TK-10)	GI50 (DU-145)	GI50 (Hs-578T)	GI50 (MDA-MB-435)	GI50 (SK-MEL-2)	GI50 (MCF7)
O=C1NC(=O)C(C(=O)C(=O)Nc2ccc(Br)cc2)C(=O)N1	> 100 µM (inactive)	> 100 µM (inactive)	> 100 µM (inactive)	> 100 µM (inactive)	> 100 µM (inactive)	> 100 µM (inactive)	> 100 µM (inactive)	> 100 µM (inactive)	> 100 µM (inactive)	> 100 µM (inactive)	> 100 µM (inactive)	> 100 µM (inactive)							
CC(=O)O[C@@]12CO[C@@H]1CC(O)[C@@]1(C)C(=O)[C@H](O)C3=C(C)C(O)C[C@@](O)(C(OC(=O)c4ccccc4)C12)C3(C)C (stereo partly specified)	3.97 µM (inactive)	0.839 µM (active)	3.13 µM (inactive)	1.88 µM (inactive)	0.415 µM (active)	5.82 µM (inactive)	0.371 µM (active)	0.385 µM (active)		> 100 µM (inactive)	3.3 µM (inactive)	0.519 µM (active)	6.05 µM (inactive)	8.51 µM (inactive)	3.35 µM (inactive)	0.252 µM (active)	0.18 µM (active)	0.367 µM (active)	0.463 µM (active)
CCOC(=O)C1=C(C(=O)OCC)C2(c3ccccc3)N(O1)c1ccccc1C2(C)C (stereo unspecified)	31.2 µM (inactive)		48.3 µM (inactive)	41.8 µM (inactive)	43.5 µM (inactive)	58.7 µM (inactive)	32.4 µM (inactive)	69.3 µM (inactive)	44.6 µM (inactive)	32.4 µM (inactive)	38.3 µM (inactive)	20.7 µM (inactive)	37.6 µM (inactive)	> 100 µM (inactive)				30.9 µM (inactive)	
c1ccc(SC2CCSc3ccccc3C2Sc2ccccc2)cc1 (stereo unspecified)	> 100 µM (inactive)	> 100 µM (inactive)	> 100 µM (inactive)	> 10 µM (inactive)	> 100 µM (inactive)	> 100 µM (inactive)	9.75 µM (inactive)	69.2 µM (inactive)		> 100 µM (inactive)	94.4 µM (inactive)	96.4 µM (inactive)	> 100 µM (inactive)	> 100 µM (inactive)					
Cc1ccc(NC(=O)c2cc3ccccc3c(/N=N\c3ccccc3O)c2O)c(C)c1	0.687 µM (active)		0.859 µM (active)	1.14 µM (inactive)			0.664 µM (active)	3.13 µM (inactive)	5.09 µM (inactive)	2.82 µM (inactive)	1.2 µM (inactive)	1.78 µM (inactive)	1.03 µM (active)	5.31 µM (inactive)		1.64 µM (inactive)		2.98 µM (inactive)	2.16 µM (inactive)
C=CC[P@]1(=O)O[C@H](c2ccccc2)C(C)N1C(C)C (stereo partly specified)	> 100 µM (inactive)	> 100 µM (inactive)	> 100 µM (inactive)	> 100 µM (inactive)	> 100 µM (inactive)	> 100 µM (inactive)	> 100 µM (inactive)	> 100 µM (inactive)	> 100 µM (inactive)	> 100 µM (inactive)	> 100 µM (inactive)	> 100 µM (inactive)	> 100 µM (inactive)	> 100 µM (inactive)				> 100 µM (inactive)	
COc1ccc(OC)c(C#Cc2ccc(OC)c(C(=O)NCCc3ccc(F)cc3)c2)c1	> 100 µM (inactive)	> 100 µM (inactive)	> 100 µM (inactive)	3.53 µM (inactive)		9.84 µM (inactive)		3.17 µM (inactive)	1.73 µM (inactive)		61.2 µM (inactive)	3.32 µM (inactive)		> 100 µM (inactive)		> 100 µM (inactive)	1.23 µM (inactive)	5.05 µM (inactive)	6.5 µM (inactive)
CCN(CC)CC(=O)Nc1ccc2c(c1)C(=O)c1ccc(NC(=O)CN(CC)CC)cc1C2=O	23.1 µM (inactive)	14.7 µM (inactive)	29.5 µM (inactive)	17.7 µM (inactive)	16.3 µM (inactive)	12.9 µM (inactive)	13.6 µM (inactive)	30.5 µM (inactive)	53.2 µM (inactive)		23.8 µM (inactive)	31.3 µM (inactive)	20.3 µM (inactive)	43 µM (inactive)				> 100 µM (inactive)	
CCOC(=O)C(Cc1ccccc1)NC(=O)OC(C)(C)C (stereo unspecified)	> 100 µM (inactive)	> 100 µM (inactive)	> 100 µM (inactive)	> 100 µM (inactive)	> 100 µM (inactive)	> 100 µM (inactive)	> 100 µM (inactive)	> 100 µM (inactive)	> 100 µM (inactive)		> 100 µM (inactive)		> 100 µM (inactive)	> 100 µM (inactive)				> 100 µM (inactive)	
C=CC(=O)NCNC(=O)C=C	> 100 µM (inactive)	> 100 µM (inactive)	> 100 µM (inactive)	> 100 µM (inactive)	> 100 µM (inactive)	> 100 µM (inactive)	> 100 µM (inactive)	> 100 µM (inactive)	> 100 µM (inactive)	> 100 µM (inactive)	> 100 µM (inactive)	> 100 µM (inactive)	> 100 µM (inactive)	> 100 µM (inactive)				> 100 µM (inactive)	
CC(C)(C)C[P+](C)(C)c1ccccc1	> 100 µM (inactive)	> 100 µM (inactive)	> 100 µM (inactive)	> 100 µM (inactive)	> 100 µM (inactive)		> 100 µM (inactive)	> 100 µM (inactive)	> 100 µM (inactive)	> 100 µM (inactive)	> 100 µM (inactive)	> 100 µM (inactive)	> 100 µM (inactive)	> 100 µM (inactive)				> 100 µM (inactive)	
CC[n+]1c(/C=C/c2ccc(N(CCCl)CCCl)cc2)ccc2cc(Br)ccc21	1.61 µM (inactive)	1.47 µM (inactive)	1.86 µM (inactive)	0.574 µM (active)	1.55 µM (inactive)	1310 µM (inactive)	131 µM (inactive)	2.86 µM (inactive)	1.21 µM (inactive)	1.82 µM (inactive)	1.22 µM (inactive)	2.53 µM (inactive)	3.43 µM (inactive)	4.48 µM (inactive)				0.382 µM (active)	
CSc1cnc2ccccc2c1Sc1cn(C)c2ccccc2c1=O	9.14 µM (inactive)	14.6 µM (inactive)	18.5 µM (inactive)	18.7 µM (inactive)	29 µM (inactive)	36.2 µM (inactive)	10.2 µM (inactive)	58.5 µM (inactive)	27.9 µM (inactive)	26.1 µM (inactive)	19.1 µM (inactive)	17.9 µM (inactive)	18 µM (inactive)	> 100 µM (inactive)				21.8 µM (inactive)	
COc1cc(CNc2nc3c(N)cc(C(F)(F)F)cc3nc2-c2ccccc2)cc(OC)c1OC	50.8 µM (inactive)	18.5 µM (inactive)	71.1 µM (inactive)	> 10 µM (inactive)	> 10 µM (inactive)	61.9 µM (inactive)	19.7 µM (inactive)	13.4 µM (inactive)	53.5 µM (inactive)	50.2 µM (inactive)	> 10 µM (inactive)	47.3 µM (inactive)	39.5 µM (inactive)	> 10 µM (inactive)				52.1 µM (inactive)	
Cn1c2c(c3ccccc31)CCN(CCN1CCN(c3ccccc3)CC1)C2=O	> 100 µM (inactive)	> 100 µM (inactive)	> 100 µM (inactive)	> 100 µM (inactive)	41.3 µM (inactive)		58.1 µM (inactive)	> 100 µM (inactive)	> 100 µM (inactive)			> 100 µM (inactive)		> 100 µM (inactive)					
Cc1ccc(S(=O)OCC23CC4CC(CC(C4)C2)C3)cc1 (stereo unspecified)	> 100 µM (inactive)	> 100 µM (inactive)	> 100 µM (inactive)	> 100 µM (inactive)	> 100 µM (inactive)	> 100 µM (inactive)	> 100 µM (inactive)	> 100 µM (inactive)	> 100 µM (inactive)	> 100 µM (inactive)	> 100 µM (inactive)	> 100 µM (inactive)	> 100 µM (inactive)	> 100 µM (inactive)					
O=C(/C=C/c1cccc2ccccc12)c1ccccc1Cl	18.4 µM (inactive)		13.6 µM (inactive)	16.6 µM (inactive)	17.5 µM (inactive)	16 µM (inactive)	8.95 µM (inactive)	13.6 µM (inactive)	19.1 µM (inactive)	> 100 µM (inactive)	14.1 µM (inactive)	5.43 µM (inactive)	18.6 µM (inactive)	14.6 µM (inactive)				19.3 µM (inactive)	
Cc1cc(Cl)ccc1NC(=O)C(=O)Cc1ccc([N+](=O)[O-])c([N+](=O)[O-])c1CC(=O)C(=O)Nc1ccc(Cl)cc1C	> 100 µM (inactive)	> 100 µM (inactive)	> 100 µM (inactive)	> 100 µM (inactive)	35 µM (inactive)	> 100 µM (inactive)	> 100 µM (inactive)	> 100 µM (inactive)	> 100 µM (inactive)	> 100 µM (inactive)	> 100 µM (inactive)	> 100 µM (inactive)	> 100 µM (inactive)	> 100 µM (inactive)				> 100 µM (inactive)	
O=C1C2c3[nH]c4ccccc4c3C3CCC(c4ccccc4)CC3C2C(=O)N1c1ccccc1 (stereo unspecified)	> 100 µM (inactive)	> 100 µM (inactive)	> 100 µM (inactive)	> 100 µM (inactive)	97.7 µM (inactive)	> 10 µM (inactive)		> 100 µM (inactive)	> 100 µM (inactive)	> 100 µM (inactive)	> 100 µM (inactive)	> 100 µM (inactive)		> 100 µM (inactive)					

From ChEMBL document CHEMBL1201862, “PubChem BioAssay data set” (2004)
